In US20060069132A1, “Azolecarboxamide herbicides” (priority 2004, published 2006):

Legend:
blackgrass = assay: Test B postemergence herbicide test; format: in vivo, Alopecurus myosuroides; conditions: postemergence
Summary of the method: (§1)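 Treated at 2-leaf (paddy) or 1–4-leaf, 2–18 cm (postemergence); greenhouse 13–15 d; visual score vs control, 0 none to 100 complete control; dash = not tested.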

ducksalad = assay: Test B flooded paddy test; format: in vivo, Heteranthera limosa; conditions: 1000 g ai/ha, scale 0 to 100 (0 no effect, 100 complete control)
Summary of the method: as §1

cocklebur = assay: Test B pre-/postemergence herbicide test; format: in vivo, Xanthium strumarium; conditions: for Plant response rating (0 to 100 scale), Cocklebur: 0 is no effect; for Cocklebur plant response rating: postemergence
Summary of the method: (§2)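 Herbicidal effect was judged by eye on a 0–100 scale after plants stood 13 to 15 days in the greenhouse following pre- or postemergence treatment with surfactant-containing formulations.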

velvetleaf = assay: Test B pre-/postemergence herbicide test; format: in vivo, Abutilon theophrasti; conditions: for Plant response rating (0 to 100 scale), Velvetleaf: 0 is no effect, preemergence; for Velvetleaf plant response rating: postemergence
Summary of the method: (§3)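 Response was scored visually 13 to 15 days after treatment against untreated greenhouse controls, 0 meaning no effect and 100 complete control. Formulations (solvent mixture plus surfactant) went onto soil after planting, onto foliage of 1- to 4-leaf plants, and onto 2-leaf plants in a flooded paddy set including rice and barnyardgrass.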

[1] = tested on: small flower umbrella sedge; assay: Test B flooded paddy test; format: in vivo, Cyperus difformis; conditions: 1000 g ai/ha, scale 0 to 100 (0 no effect, 100 complete control)
Summary of the method: as §1

lambsquarters = assay: Test B pre-/postemergence herbicide test; format: in vivo, Chenopodium album; conditions: for Plant response rating (0 to 100 scale), Lambsquarters: 0 is no effect; for Lambsquarters plant response rating: postemergence
Summary of the method: as §3

morningglory = assay: Test B pre-/postemergence herbicide test; format: in vivo, Ipomoea coccinea; conditions: for Plant response rating (0 to 100 scale), Morningglory: 0 is no effect; for Morningglory plant response rating: postemergence
Summary of the method: as §2

wheat = assay: Test B postemergence herbicide test; format: in vivo, Triticum aestivum; parameters: key to Wheat plant response rating: 0 = no effect, 100 = complete control
Summary of the method: (§4)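 Visual ratings, 0 (no effect) to 100 (complete control), made versus controls after 13–15 d greenhouse. Paddy plants treated at 2-leaf stage; postemergence plants at 1- to 4-leaf stage, 2–18 cm tall.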

Surinam grass = assay: Test B pre-/postemergence herbicide test; format: in vivo, Urochloa decumbens; conditions: for Plant response rating (0 to 100 scale), Surinam Grass: 0 is no effect; for Surinam Grass plant response rating: postemergence
Summary of the method: as §3

corn = assay: Test B pre-/postemergence herbicide test; format: in vivo, Zea mays; conditions: for Plant response rating (0 to 100 scale), Corn: 0 is no effect; for Corn plant response rating: postemergence
Summary of the method: as §3

barnyardgrass [2] = assay: Test B flooded paddy test; format: in vivo, Echinochloa crus-galli; conditions: 1000 g ai/ha, scale 0 to 100 (0 no effect, 100 complete control)
Summary of the method: as §1

rice = assay: Test B flooded paddy test; format: in vivo, Oryza sativa; conditions: 1000 g ai/ha, scale 0 to 100 (0 no effect, 100 complete control)
Summary of the method: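 Postemergence plants were sprayed with formulated test chemicals at 2 to 18 cm height (1- to 4-leaf stage); paddy species were grown to the 2-leaf stage. After 13 to 15 days in a greenhouse, injury was rated visually against untreated controls on a 0–100 scale (0 = no effect, 100 = complete control).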

wild oat = assay: Test B postemergence herbicide test; format: in vivo, Avena fatua; conditions: postemergence
Summary of the method: as §4

pigweed = assay: Test B pre-/postemergence herbicide test; format: in vivo, Amaranthus retroflexus; conditions: for Plant response rating (0 to 100 scale), Pigweed: 0 is no effect; for Pigweed plant response rating: postemergence
Summary of the method: as §3

barnyardgrass [3] = assay: Test B pre-/postemergence herbicide test; format: in vivo, Echinochloa crus-galli; conditions: for Plant response rating (0 to 100 scale), Barnyardgrass: 0 is no effect; for Barnyardgrass plant response rating: postemergence
Summary of the method: as §2

large crabgrass = assay: Test B pre-/postemergence herbicide test; format: in vivo, Digitaria sanguinalis; conditions: for Plant response rating (0 to 100 scale), Crabgrass, Large: 0 is no effect; for Crabgrass, Large plant response rating: postemergence
Summary of the method: as §3

giant foxtail = assay: Test B pre-/postemergence herbicide test; format: in vivo, Setaria faberi; conditions: for Plant response rating (0 to 100 scale), Foxtail, Giant: 0 is no effect; for Foxtail, Giant plant response rating: postemergence
Summary of the method: as §3

[4] = 125 g ai/ha, visual rating, scale 0 (no effect) to 100 (complete control)
[5] = 500 g ai/ha, scale 0 to 100, 0 is no effect, 100 is complete control
[6] = 125 g ai/ha, 100 is complete control, preemergence
[7] = 500 g ai/ha, visual rating, 0 = no effect, 100 = complete control, preemergence
[8] = 125 g ai/ha, 100 is complete control
[9] = 125 g ai/ha, visual rating, scale 0 (no effect) to 100 (complete control), postemergence

Q: How did the “Blackgrass plant response rating” value (blackgrass; [4]) turn out when `CCc1nn(C(C)(C)C)nc1C(=O)Nc1cc(C(=O)N(C)C)ccc1F` [Compound 361] was run?
A: Its value is 10.

Q: And the “Blackgrass plant response rating” value (blackgrass; [5])?
A: The value was 40.

Q: What about the “Ducksalad plant response rating” value (ducksalad) of the same compound?
A: The value was 90.

Q: What about the “Plant response rating (0 to 100 scale), Cocklebur” value (cocklebur; [6]) of the same compound?
A: The value was 0.

Q: What about the “Cocklebur plant response rating” value (cocklebur; [4]) of the same compound?
A: The value was 10.

Q: And the “Plant response rating, Cocklebur” value (cocklebur; [7])?
A: The value was 50.

Q: And the “Cocklebur plant response rating” value (cocklebur; [5])?
A: Its value is 20.

Q: And the “Plant response rating (0 to 100 scale), Velvetleaf” value (velvetleaf; [8])?
A: The value was 20.

Q: What about the “Velvetleaf plant response rating” value (velvetleaf; [4]) of the same compound?
A: Its value is 10.

Q: And the “Velvetleaf plant response rating” value (velvetleaf; [5])?
A: The value was 30.

Q: What about the “Sedge, Umbrella plant response rating” value [1] of the same compound?
A: Its value is 90.

Q: What about the “Plant response rating (0 to 100 scale), Lambsquarters” value (lambsquarters; [6]) of the same compound?
A: Its value is 80.

Q: What about the “Lambsquarters plant response rating” value (lambsquarters; [4]) of the same compound?
A: The value was 70.

Q: What about the “Plant response rating, Lambsquarters” value (lambsquarters; [7]) of the same compound?
A: Its value is 100.

Q: And the “Lambsquarters plant response rating” value (lambsquarters; [5])?
A: The value was 70.

Q: And the “Plant response rating (0 to 100 scale), Morningglory” value (morningglory; [6])?
A: Its value is 10.

Q: And the “Morningglory plant response rating” value (morningglory; [4])?
A: Its value is 10.

Q: What about the “Plant response rating, Morningglory” value (morningglory; [7]) of the same compound?
A: Its value is 60.

Q: And the “Morningglory plant response rating” value (morningglory; [5])?
A: Its value is 80.

Q: What about the “Wheat plant response rating” value (wheat; [9]) of the same compound?
A: The value was 0.

Q: What about the “Wheat plant response rating” value (wheat; postemergence, 500 g ai/ha, scale 0 to 100, 0 is no effect, 100 is complete control) of the same compound?
A: The value was 0.

Q: And the “Plant response rating (0 to 100 scale), Surinam Grass” value (Surinam grass; [6])?
A: The value was 50.

Q: And the “Surinam Grass plant response rating” value (Surinam grass; [4])?
A: Its value is 10.

Q: And the “Plant response rating, Surinam Grass” value (Surinam grass; [7])?
A: The value was 90.

Q: And the “Surinam Grass plant response rating” value (Surinam grass; [5])?
A: Its value is 10.

Q: What about the “Plant response rating (0 to 100 scale), Corn” value (corn; [6]) of the same compound?
A: The value was 30.

Q: What about the “Corn plant response rating” value (corn; [4]) of the same compound?
A: Its value is 0.

Q: And the “Plant response rating, Corn” value (corn; [7])?
A: Its value is 70.

Q: And the “Corn plant response rating” value (corn; [5])?
A: The value was 0.

Q: What about the “Barnyardgrass plant response rating” value (barnyardgrass [2]) of the same compound?
A: The value was 80.

Q: And the “Rice plant response rating” value (rice)?
A: The value was 90.

Q: And the “Oat, Wild plant response rating” value (wild oat; [4])?
A: The value was 0.

Q: And the “Oat, Wild plant response rating” value (wild oat; [5])?
A: The value was 20.

Q: And the “Plant response rating (0 to 100 scale), Pigweed” value (pigweed; [6])?
A: The value was 80.

Q: What about the “Pigweed plant response rating” value (pigweed; [4]) of the same compound?
A: The value was 20.

Q: And the “Plant response rating, Pigweed” value (pigweed; [7])?
A: The value was 100.

Q: What about the “Pigweed plant response rating” value (pigweed; [5]) of the same compound?
A: Its value is 40.

Q: What about the “Plant response rating (0 to 100 scale), Barnyardgrass” value (barnyardgrass [3]; [6]) of the same compound?
A: The value was 80.

Q: What about the “Barnyardgrass plant response rating” value (barnyardgrass [3]; [4]) of the same compound?
A: The value was 0.

Q: And the “Plant response rating, Barnyardgrass” value (barnyardgrass [3]; [7])?
A: Its value is 100.

Q: What about the “Barnyardgrass plant response rating” value (barnyardgrass [3]; [5]) of the same compound?
A: The value was 10.

Q: And the “Plant response rating (0 to 100 scale), Crabgrass, Large” value (large crabgrass; [6])?
A: The value was 80.

Q: And the “Crabgrass, Large plant response rating” value (large crabgrass; [4])?
A: Its value is 10.

Q: What about the “Plant response rating, Crabgrass, Large” value (large crabgrass; [7]) of the same compound?
A: The value was 100.

Q: What about the “Crabgrass, Large plant response rating” value (large crabgrass; [5]) of the same compound?
A: Its value is 10.

Q: And the “Plant response rating (0 to 100 scale), Foxtail, Giant” value (giant foxtail; [6])?
A: The value was 50.

Q: What about the “Foxtail, Giant plant response rating” value (giant foxtail; [4]) of the same compound?
A: The value was 20.

Q: And the “Plant response rating, Foxtail, Giant” value (giant foxtail; [7])?
A: Its value is 100.

Q: What about the “Foxtail, Giant plant response rating” value (giant foxtail; [5]) of the same compound?
A: Its value is 30.

Q: With `CCNC(=O)c1ccc(F)c(NC(=O)c2nn(C(C)(C)C)nc2CC)c1` [Compound 362] as the compound, how does the “Blackgrass plant response rating” value (blackgrass; [4]) read?
A: Its value is 10.

Q: And the “Blackgrass plant response rating” value (blackgrass; [5])?
A: The value was 20.

Q: And the “Ducksalad plant response rating” value (ducksalad)?
A: The value was 90.

Q: And the “Plant response rating (0 to 100 scale), Cocklebur” value (cocklebur; [6])?
A: The value was 0.

Q: What about the “Cocklebur plant response rating” value (cocklebur; [4]) of the same compound?
A: The value was 10.

Q: And the “Cocklebur plant response rating” value (cocklebur; [5])?
A: Its value is 30.

Q: And the “Plant response rating (0 to 100 scale), Velvetleaf” value (velvetleaf; [8])?
A: Its value is 0.

Q: And the “Velvetleaf plant response rating” value (velvetleaf; [4])?
A: The value was 0.

Q: And the “Sedge, Umbrella plant response rating” value [1]?
A: The value was 90.

Q: And the “Plant response rating (0 to 100 scale), Lambsquarters” value (lambsquarters; [6])?
A: Its value is 0.

Q: And the “Lambsquarters plant response rating” value (lambsquarters; [4])?
A: Its value is 10.

Q: And the “Plant response rating (0 to 100 scale), Morningglory” value (morningglory; [6])?
A: Its value is 0.

Q: What about the “Morningglory plant response rating” value (morningglory; [4]) of the same compound?
A: The value was 10.

Q: What about the “Wheat plant response rating” value (wheat; [9]) of the same compound?
A: The value was 0.

Q: And the “Wheat plant response rating” value (wheat; 500 g ai/ha, scale 0 to 100, 0 no effect, 100 complete control, preemergence)?
A: The value was 30.

Q: And the “Plant response rating (0 to 100 scale), Surinam Grass” value (Surinam grass; [6])?
A: The value was 10.

Q: And the “Surinam Grass plant response rating” value (Surinam grass; [4])?
A: Its value is 10.

Q: And the “Plant response rating (0 to 100 scale), Corn” value (corn; [6])?
A: The value was 0.

Q: What about the “Corn plant response rating” value (corn; [4]) of the same compound?
A: Its value is 0.

Q: And the “Corn plant response rating” value (corn; [5])?
A: Its value is 0.

Q: What about the “Barnyardgrass plant response rating” value (barnyardgrass [2]) of the same compound?
A: The value was 50.

Q: And the “Rice plant response rating” value (rice)?
A: The value was 60.

Q: And the “Oat, Wild plant response rating” value (wild oat; [4])?
A: The value was 20.

Q: What about the “Plant response rating (0 to 100 scale), Pigweed” value (pigweed; [6]) of the same compound?
A: The value was 0.

Q: And the “Pigweed plant response rating” value (pigweed; [4])?
A: Its value is 20.

Q: And the “Plant response rating (0 to 100 scale), Barnyardgrass” value (barnyardgrass [3]; [6])?
A: The value was 10.

Q: What about the “Barnyardgrass plant response rating” value (barnyardgrass [3]; [4]) of the same compound?
A: Its value is 0.

Q: And the “Barnyardgrass plant response rating” value (barnyardgrass [3]; [5])?
A: Its value is 0.

Q: And the “Plant response rating (0 to 100 scale), Crabgrass, Large” value (large crabgrass; [6])?
A: Its value is 20.

Q: And the “Crabgrass, Large plant response rating” value (large crabgrass; [4])?
A: Its value is 0.

Q: And the “Crabgrass, Large plant response rating” value (large crabgrass; [5])?
A: The value was 0.

Q: What about the “Plant response rating (0 to 100 scale), Foxtail, Giant” value (giant foxtail; [6]) of the same compound?
A: Its value is 10.

Q: What about the “Foxtail, Giant plant response rating” value (giant foxtail; [4]) of the same compound?
A: Its value is 10.

Q: What about the “Foxtail, Giant plant response rating” value (giant foxtail; [5]) of the same compound?
A: The value was 10.
